In ChEMBL document CHEMBL3774317, “Design and synthesis of novel tamoxifen analogues that avoid CYP2D6 metabolism” (Eur J Med Chem, 2016):

Legend:
[1] = Cytotoxicity against human HCT116 cells assessed as cell growth at 5 uM after 48 hrs by SRB assay; format: functional; details: HCT-116, 48 h, read-out: Activity
NCI-H522 [2] = experiment: Cytotoxicity against human NCI-H522 cells assessed as cell growth at 5 nM after 48 hrs by SRB assay; format: functional; details: NCI-H522, 48 h, read-out: Activity
[3] = Cytotoxicity against human Hs 578T cells assessed as cell growth at 5 uM after 48 hrs by SRB assay; format: functional; details: read-out: Activity
[4] = Metabolic stability in human hepatocytes assessed as remaining parent compound level at 10 uM measured immediately after compound addition by LC/MS analysis; format: ADME, cell-based, Hepatocyte; details: read-out: Drug metabolism
NCI-H522 [5] = experiment: Cytotoxicity against human NCI-H522 cells assessed as cell growth at 0.5 uM after 48 hrs by SRB assay; format: functional; details: NCI-H522, 48 h, read-out: Activity
K562 [6] = experiment: Cytotoxicity against human K562 cells assessed as cell growth at 0.5 uM after 48 hrs by SRB assay; format: functional; details: K562, 48 h, read-out: Activity
[7] = Cytotoxicity against human SKOV3 cells assessed as cell growth at 5 uM after 48 hrs by SRB assay; format: functional; details: SK-OV-3, 48 h, read-out: Activity
[8] = Cytotoxicity against human SNB19 cells assessed as cell growth at 5 uM after 48 hrs by SRB assay; format: functional; details: SNB-19, 48 h, read-out: Activity
[9] = Cytotoxicity against human SF268 cells assessed as cell growth at 5 uM after 48 hrs by SRB assay; format: functional; details: SF-268, 48 h, read-out: Activity
[10] = Cytotoxicity against human HOP92 cells assessed as cell growth at 5 uM after 48 hrs by SRB assay; format: functional; details: HOP-92, 48 h, read-out: Activity
[11] = Cytotoxicity against human HCT116 cells assessed as cell growth at 50 nM after 48 hrs by SRB assay; format: functional; details: HCT-116, 48 h, read-out: Activity
[12] = Cytotoxicity against human PC3 cells assessed as cell growth at 5 uM after 48 hrs by SRB assay; format: functional; details: PC-3, 48 h, read-out: Activity
[13] = Cytotoxicity against human OVCAR5 cells assessed as cell growth at 0.5 uM after 48 hrs by SRB assay; format: functional; details: OVCAR-5, 48 h, read-out: Activity
[14] = Cytotoxicity against human HOP62 cells assessed as cell growth at 50 nM after 48 hrs by SRB assay; format: functional; details: HOP-62, 48 h, read-out: Activity
SK-MEL-5 = experiment: Cytotoxicity against human SK-MEL-5 cells assessed as cell growth at 50 uM after 48 hrs by SRB assay; format: functional; details: SK-MEL-5, 48 h, read-out: Activity
SK-MEL-2 = experiment: Cytotoxicity against human SK-MEL-2 cells assessed as cell growth at 0.5 uM after 48 hrs by SRB assay; format: functional; details: SK-MEL-2, 48 h, read-out: Activity
[15] = Metabolic stability in human liver microsomes assessed as remaining parent compound level at 10 uM after 3 hrs in presence of NAPDH by LC/MS analysis; format: ADME; details: read-out: Drug metabolism
[16] = Cytotoxicity against human SNB19 cells assessed as cell growth at 0.5 uM after 48 hrs by SRB assay; format: functional; details: SNB-19, 48 h, read-out: Activity
[17] = Cytotoxicity against human BT549 cells assessed as cell growth at 50 uM after 48 hrs by SRB assay; format: functional; details: BT-549, 48 h, read-out: Activity
T47D [18] = experiment: Cytotoxicity against human T47D cells assessed as cell growth at 50 uM after 48 hrs by SRB assay; format: functional; details: read-out: Activity
[19] = Cytotoxicity against human OVCAR3 cells assessed as cell growth at 50 nM after 48 hrs by SRB assay; format: functional; details: OVCAR-3, 48 h, read-out: Activity
NCI-H460 [20] = experiment: Cytotoxicity against human NCI-H460 cells assessed as cell growth at 50 uM after 48 hrs by SRB assay; format: functional; details: NCI-H460, 48 h, read-out: Activity
U-251 = experiment: Cytotoxicity against human U251 cells assessed as cell growth at 50 nM after 48 hrs by SRB assay; format: functional; details: U-251, 48 h, read-out: Activity
[21] = Cytotoxicity against human HOP92 cells assessed as cell growth at 10^-4 M after 48 hrs by SRB assay; format: functional; details: HOP-92, 48 h, read-out: Activity
NCI-H460 [22] = experiment: Cytotoxicity against human NCI-H460 cells assessed as cell growth at 10^-7 M after 48 hrs by SRB assay; format: functional; details: NCI-H460, 48 h, read-out: Activity
A549 = experiment: Cytotoxicity against human A549 cells assessed as cell growth at 10^-4 M after 48 hrs by SRB assay; format: functional; details: A549, 48 h, read-out: Activity
[23] = Cytotoxicity against human IGROV1 cells assessed as cell growth at 10^-4 M after 48 hrs by SRB assay; format: functional; details: IGROV-1, 48 h, read-out: Activity
[24] = Cytotoxicity against human SF268 cells assessed as cell growth at 10^-5 M after 48 hrs by SRB assay; format: functional; details: SF-268, 48 h, read-out: Activity
CCRF-CEM = experiment: Cytotoxicity against human CCRF-CEM cells assessed as cell growth at 10^-7 M after 48 hrs by SRB assay; format: functional; details: read-out: Activity
K562 [25] = experiment: Cytotoxicity against human K562 cells assessed as cell growth at 10^-8 M after 48 hrs by SRB assay; format: functional; details: K562, 48 h, read-out: Activity
[26] = Cytotoxicity against human OVCAR3 cells assessed as cell growth at 10^-4 M after 48 hrs by SRB assay; format: functional; details: OVCAR-3, 48 h, read-out: Activity
[27] = Cytotoxicity against human TK10 cells assessed as cell growth at 10^-6 M after 48 hrs by SRB assay; format: functional; details: TK-10, 48 h, read-out: Activity
[28] = Cytotoxicity against human HL-60(TB) cells assessed as cell growth at 10^-6 M after 48 hrs by SRB assay; format: functional; details: HL-60, 48 h, read-out: Activity
MDA-MB-231 = experiment: Cytotoxicity against human MDA-MB-231 cells assessed as cell growth at 10^-4 M after 48 hrs by SRB assay; format: functional; details: MDA-MB-231, 48 h, read-out: Activity
NCI-H522 [29] = experiment: Cytotoxicity against human NCI-H522 cells assessed as cell growth at 10^-7 M after 48 hrs by SRB assay; format: functional; details: NCI-H522, 48 h, read-out: Activity
[30] = Cytotoxicity against human Caki1 cells assessed as cell growth at 10^-5 M after 48 hrs by SRB assay; format: functional; details: CAKI-1, 48 h, read-out: Activity
MDA-MB-435 = experiment: Cytotoxicity against human MDA-MB-435 cells assessed as cell growth at 10^-4 M after 48 hrs by SRB assay; format: functional; details: MDA-MB-435, 48 h, read-out: Activity
[31] = Cytotoxicity against human Hs 578T cells assessed as cell growth at 10^-4 M after 48 hrs by SRB assay; format: functional; details: read-out: Activity
T47D [32] = experiment: Cytotoxicity against human T47D cells assessed as cell growth at 10^-6 M after 48 hrs by SRB assay; format: functional; details: read-out: Activity
[33] = Cytotoxicity against human OVCAR3 cells assessed as cell growth at 10^-7 M after 48 hrs by SRB assay; format: functional; details: OVCAR-3, 48 h, read-out: Activity
[34] = Cytotoxicity against human SF539 cells assessed as cell growth at 10^-6 M after 48 hrs by SRB assay; format: functional; details: SF-539, 48 h, read-out: Activity
[35] = Cytotoxicity against human SF295 cells assessed as cell growth at 10^-8 M after 48 hrs by SRB assay; format: functional; details: SF-295, 48 h, read-out: Activity

**Q.** Which growth at 5 µM [1] does the source give for `CCCCCCCCCC(=O)Oc1ccc(/C(=C(/C)c2ccccc2)c2ccc(OCCN3CCCC3)cc2)cc1` here?
**A.** 85%

**Q.** And the growth at 0.005 µM (NCI-H522 [2])?
**A.** 101%

**Q.** And the growth at 5 µM [3]?
**A.** 77%

**Q.** And the remaining at 0 h, 10 µM [4]?
**A.** 29%

**Q.** What about the growth at 0.5 µM (NCI-H522 [5]) of the same molecule?
**A.** 98%

**Q.** And the growth at 0.5 µM (K562 [6])?
**A.** 34%

**Q.** And the growth at 5 µM [7]?
**A.** 78%

**Q.** And the growth at 5 µM [8]?
**A.** 94%

**Q.** What about the growth at 5 µM [9] of the same molecule?
**A.** 83%

**Q.** And the growth at 5 µM [10]?
**A.** 72%

**Q.** What about the growth at 0.05 µM [11] of the same molecule?
**A.** 95%

**Q.** What about the growth at 5 µM [12] of the same molecule?
**A.** 89%

**Q.** What about the growth at 0.5 µM [13] of the same molecule?
**A.** 77%

**Q.** What about the growth at 0.05 µM [14] of the same molecule?
**A.** 95%

**Q.** And the growth at 50 µM (SK-MEL-5)?
**A.** -100%

**Q.** And the growth at 0.5 µM (SK-MEL-2)?
**A.** 99%

**Q.** And the remaining at 3 h, 10 µM [15]?
**A.** 63%

**Q.** And the growth at 0.5 µM [16]?
**A.** 87%

**Q.** What about the growth at 50 µM [17] of the same molecule?
**A.** -76%

**Q.** And the growth at 50 µM (T47D [18])?
**A.** -61%

**Q.** And the growth at 0.05 µM [19]?
**A.** 104%

**Q.** What about the growth at 50 µM (NCI-H460 [20]) of the same molecule?
**A.** -91%

**Q.** And the growth at 0.05 µM (U-251)?
**A.** 95%

**Q.** For `C/C(=C(/c1ccc(O)cc1)c1ccc(OCCN2CCCC2)cc1)c1ccccc1`, which growth at 100 µM [21] is on record?
**A.** -88%

**Q.** And the growth at 0.1 µM (NCI-H460 [22])?
**A.** 106%

**Q.** And the growth at 100 µM (A549)?
**A.** -96%

**Q.** What about the growth at 100 µM [23] of the same molecule?
**A.** -54%

**Q.** And the growth at 10 µM [24]?
**A.** 37%

**Q.** And the growth at 0.1 µM (CCRF-CEM)?
**A.** 113%

**Q.** What about the growth at 0.01 µM (K562 [25]) of the same molecule?
**A.** 99%

**Q.** And the growth at 100 µM [26]?
**A.** -100%

**Q.** What about the growth at 1 µM [27] of the same molecule?
**A.** 95%

**Q.** What about the growth at 1 µM [28] of the same molecule?
**A.** 90%

**Q.** What about the growth at 100 µM (MDA-MB-231) of the same molecule?
**A.** -71%

**Q.** What about the growth at 0.1 µM (NCI-H522 [29]) of the same molecule?
**A.** 94%

**Q.** And the growth at 10 µM [30]?
**A.** 17%

**Q.** What about the growth at 100 µM (MDA-MB-435) of the same molecule?
**A.** -100%

**Q.** And the growth at 100 µM [31]?
**A.** -43%

**Q.** What about the growth at 1 µM (T47D [32]) of the same molecule?
**A.** 48%

**Q.** What about the growth at 0.1 µM [33] of the same molecule?
**A.** 99%

**Q.** And the growth at 1 µM [34]?
**A.** 91%

**Q.** What about the growth at 0.01 µM [35] of the same molecule?
**A.** 87%
